Patent US20230089966A1, “METHOD FOR DIFFERENTIATION OF BRAIN MURAL CELLS FROM HUMAN PLURIPOTENT STEM CELLS” (WISCONSIN ALUMNI RESEARCH FOUNDATION, priority 2021, published 2023)

Assays:
[1] = target: T1, Notch intracellular domain-RBPJ assembly (Homo sapiens, UniProt Q06330); assay: Loss-of-function experiment, RT-qPCR of mural cell gene expression; format: cell-based; settings: 10 μM CB-103 in culture medium; 6 days after transduction of neural crest cells
T1 construct: corresponding to amino acids 1,662-2,321 of NP_00426.2; initiator Met (start codon supplied by the forward primer) (N); expressed in transfected cells; host or cells: H9 hPSC-derived p75+ neural crest cells transduced with N3ICD-GFP (pWPI-N3ICD) lentivirus; RBPJ is endogenous
T1 sequence (Q06330 whole entry, the tested form may be a part): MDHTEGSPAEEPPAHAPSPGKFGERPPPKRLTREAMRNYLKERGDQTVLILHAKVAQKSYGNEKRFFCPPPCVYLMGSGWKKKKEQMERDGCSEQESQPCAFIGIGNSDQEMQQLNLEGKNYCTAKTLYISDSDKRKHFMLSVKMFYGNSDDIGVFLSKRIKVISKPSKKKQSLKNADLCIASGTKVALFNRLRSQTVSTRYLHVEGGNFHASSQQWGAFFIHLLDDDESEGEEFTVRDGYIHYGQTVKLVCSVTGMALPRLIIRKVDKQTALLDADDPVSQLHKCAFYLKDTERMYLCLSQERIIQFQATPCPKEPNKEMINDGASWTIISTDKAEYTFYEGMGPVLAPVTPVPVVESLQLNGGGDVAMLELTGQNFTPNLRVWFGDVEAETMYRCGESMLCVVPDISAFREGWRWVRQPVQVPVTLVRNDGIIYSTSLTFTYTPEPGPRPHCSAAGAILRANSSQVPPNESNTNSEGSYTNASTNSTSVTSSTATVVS
Description: When neural crest cells reached ˜40-50% confluence (˜2-3 days post-MACS), lentiviral transduction was performed by replacing medium in each well E6-CSFD medium containing 30-50 μL N3ICD-GFP, N1ICD-GFP, or TBX2-GFP lentivirus per mL, or 5-8 μL GFP (control) lentivirus per mL, which achieved transduction efficiencies of 50-80%. E6-CSFD medium was replaced every other day for 6 days. In some experiments, culture medium was supplemented with 10 μM CB-103 (MedChemExpress, Monmouth Junction, N.J.). The resulting cultures were either used directly for analysis or sorted to isolate GFP^+ and GFP^− cells as described below.
RNA extraction was performed using the RNeasy Plus Micro Kit (Qiagen). Cells were lysed with 350 μL Buffer RLT supplemented with 1% β-mercaptoethanol (Sigma) and transferred to gDNA Eliminator spin columns. 350 μL 70% ethanol was added to each lysate, and lysates were loaded onto RNeasy MinElute spin columns. Columns were washed with Buffer RW1, Buffer RPE, and 80% ethanol according to manufacturer protocols. RNA was eluted with RNase-free water and concentration quantified using a NanoDrop 2000 spectrophotometer (Thermo Scientific, Waltham, Mass.). 250-1000 ng of RNA was reverse-transcribed for 1 h at 37° C. using the OmniScript RT Kit (Qiagen) and 1 μM Oligo(dT)12-18 primers (Life Technologies). […]

[2] = system: GFP+ cells isolated via FACS from a N3ICD-GFP-transduced culture; assay: Contraction assay (change in cell area); format: cell-based, human; settings: 40 mM KCl, 15 min after addition; GFP+ cells 2 days after FACS; water control 0% change
Description: The contraction assay was performed 2 days after isolation of GFP^+ cells via FACS from a N3ICD-GFP-transduced culture as described above. The plate was transferred to a microscope environmental chamber at 37° C., 5% CO2 and equilibrated for 30 min. At t=0 min, a 1:114 dilution of saturated potassium chloride solution, or an equivalent volume of water, was added to the culture medium and the plate briefly rocked to mix. Phase contrast images were acquired immediately upon addition of potassium chloride or water and 15 min thereafter using an Eclipse Ti2-E microscope with a 20× objective. The Freehand Selection Tool in ImageJ was used to trace the outlines of 16 cells per 20× field at times 0 and 15 min, and the Measure function used to obtain A0 and A15, the cell areas at times 0 and 15 min, respectively. For each cell, the percent change in area was computed as (A15−A0)/A0×100%.

[3] = system: N3ICD-GFP-transduced culture; assay: Calcium imaging after KCl application; format: cell-based, human; settings: 40 mM KCl, 6 days after transduction
Description: Calcium imaging was performed 6 days after transduction of a neural crest cultures with N3ICD-GFP lentivirus as described above. FLIPR Calcium 6 dye (Molecular Devices, San Jose, Calif.) was prepared according to manufacturer instructions. 500 μL of prepared dye was added to the existing 500 μL of culture medium and cells incubated at 37° C., 5% CO2 for 2 h. The plate was transferred to a microscope environmental chamber at 37° C., 5% CO2 and equilibrated for 30 min. Images were acquired every 5 s for 300 s using an Eclipse Ti2-E microscope with a 4× objective. At t=50 s, a 1:114 dilution of saturated KCl solution (4.56 M, for a final concentration of 40 mM) was added to the well.

[4] = target: T2, KATP channels (Homo sapiens, UniProt O60706); assay: KATP channel function by calcium imaging after KCl-induced depolarization; format: cell-based; settings: 20 μM pinacidil pretreatment, 40 mM KCl, 30 s after addition
T2 construct: endogenous in cells; host or cells: hPSC-derived neural crest cultures 6 days after transduction with GFP or N3ICD-GFP lentivirus
T2 sequence (O60706 whole entry): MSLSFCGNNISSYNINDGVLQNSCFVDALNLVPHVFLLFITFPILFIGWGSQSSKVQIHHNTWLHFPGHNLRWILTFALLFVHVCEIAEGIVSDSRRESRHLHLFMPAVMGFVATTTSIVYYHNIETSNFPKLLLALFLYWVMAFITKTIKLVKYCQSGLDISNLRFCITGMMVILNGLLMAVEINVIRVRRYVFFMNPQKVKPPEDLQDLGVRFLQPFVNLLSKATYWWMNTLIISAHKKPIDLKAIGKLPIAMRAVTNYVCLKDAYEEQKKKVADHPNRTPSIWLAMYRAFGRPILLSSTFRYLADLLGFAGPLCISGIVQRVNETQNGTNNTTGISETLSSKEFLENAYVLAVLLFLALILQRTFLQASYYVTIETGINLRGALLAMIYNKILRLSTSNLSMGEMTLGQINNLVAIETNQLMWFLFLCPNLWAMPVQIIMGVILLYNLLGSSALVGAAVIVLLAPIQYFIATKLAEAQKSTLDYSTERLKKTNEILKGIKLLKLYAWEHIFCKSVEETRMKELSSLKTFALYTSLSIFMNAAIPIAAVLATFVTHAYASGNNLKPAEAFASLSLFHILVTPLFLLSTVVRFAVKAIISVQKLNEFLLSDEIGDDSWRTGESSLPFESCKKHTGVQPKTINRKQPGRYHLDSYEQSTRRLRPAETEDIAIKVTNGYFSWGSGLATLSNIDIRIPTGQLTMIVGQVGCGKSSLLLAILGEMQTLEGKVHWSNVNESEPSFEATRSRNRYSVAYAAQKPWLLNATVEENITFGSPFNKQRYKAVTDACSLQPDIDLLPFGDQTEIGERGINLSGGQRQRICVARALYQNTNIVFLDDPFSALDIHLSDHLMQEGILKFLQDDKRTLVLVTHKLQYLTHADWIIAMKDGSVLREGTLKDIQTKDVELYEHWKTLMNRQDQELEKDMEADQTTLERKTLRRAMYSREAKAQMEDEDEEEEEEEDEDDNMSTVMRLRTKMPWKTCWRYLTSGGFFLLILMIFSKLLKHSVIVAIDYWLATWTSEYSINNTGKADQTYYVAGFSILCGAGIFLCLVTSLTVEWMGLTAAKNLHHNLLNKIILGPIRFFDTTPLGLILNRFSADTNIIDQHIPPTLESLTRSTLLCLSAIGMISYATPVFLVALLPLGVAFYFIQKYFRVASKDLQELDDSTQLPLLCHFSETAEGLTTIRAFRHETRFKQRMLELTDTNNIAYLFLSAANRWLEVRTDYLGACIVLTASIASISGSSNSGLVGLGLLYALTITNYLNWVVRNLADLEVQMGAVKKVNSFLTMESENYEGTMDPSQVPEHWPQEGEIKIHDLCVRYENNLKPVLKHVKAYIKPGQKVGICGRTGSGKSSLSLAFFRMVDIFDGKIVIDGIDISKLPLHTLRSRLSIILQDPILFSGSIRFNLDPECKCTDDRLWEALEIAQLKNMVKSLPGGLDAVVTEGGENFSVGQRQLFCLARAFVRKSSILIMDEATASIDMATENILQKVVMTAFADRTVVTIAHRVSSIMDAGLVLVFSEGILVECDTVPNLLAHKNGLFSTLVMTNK
T2 sequence (Q15842 whole entry partner): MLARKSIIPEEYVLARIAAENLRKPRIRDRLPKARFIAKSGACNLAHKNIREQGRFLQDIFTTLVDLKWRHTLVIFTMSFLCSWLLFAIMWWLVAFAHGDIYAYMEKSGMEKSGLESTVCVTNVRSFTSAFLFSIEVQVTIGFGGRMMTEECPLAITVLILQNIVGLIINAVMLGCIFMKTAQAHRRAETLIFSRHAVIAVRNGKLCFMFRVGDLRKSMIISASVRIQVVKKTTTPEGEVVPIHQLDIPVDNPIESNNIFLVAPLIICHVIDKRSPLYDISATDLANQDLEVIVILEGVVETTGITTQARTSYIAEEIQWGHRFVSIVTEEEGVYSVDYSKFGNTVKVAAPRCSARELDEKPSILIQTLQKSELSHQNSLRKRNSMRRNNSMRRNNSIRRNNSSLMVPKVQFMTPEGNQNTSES
Description: To assess function of KATP channels, cells 6 days after transduction with GFP or N3ICD-GFP lentiviruses were labeled with FLIPR Calcium 6 dye as above, and 20 μM pinacidil (Santa Cruz Biotechnology, Dallas, Tex.) or DMSO added 1.5 h after addition of dye. After an additional 30 min incubation, the plate was transferred to the microscope environmental chamber. Images were acquired every 5 s for 60 s and 40 mM KCl added at t=20 s. Mean fluorescence intensity was quantified as above.

CC(C)(C)c1ccc(Oc2ccc(N)cn2)cc1 [CB-103]
Notch-dependence of N3ICD-GFP-mediated transcriptional changes [1]: confirmed that N3ICD-GFP-mediated transcriptional changes occurred via a canonical Notch transactivation mechanism

[Cl-].[K+] [KCl, potassium chloride]
average reduction in area of cells [2]: approximately 7% | Calcium response of cells to KCl application [3]: led to depolarization and calcium influx

CC(N/C(=N\C#N)Nc1ccncc1)C(C)(C)C (centres unmarked) [pinacidil]
intracellular calcium after KCl-induced depolarization versus DMSO-treated cells ([4]; GFP-transduced cultures): such a difference was not observed | intracellular calcium after KCl-induced depolarization versus DMSO-treated cells ([4]; N3ICD-GFP-transduced cultures): reduced intracellular calcium
